Measured values from paper PMC12525867, “Aromaticity Tuning in Biaryl Monophosphines and Their Derivatives” (Molecules, 2025).
Converted amounts (≈) assume the structure as drawn.

Assays:
H1HeLa cells = experiment: Cytotoxicity, microculture tetrazolium (MTT) test, H1HeLa; assay type: cell-based; conditions: H1HeLa, 24 h, microscopy
Protocol: The cytotoxicity of biaryl monophosphines was tested in vitro in normal (VERO) and cancer-derived (H1HeLa) cells after 24 h of incubation using a microculture tetrazolium test. Table 2 presents the CC50 (concentrations decreasing the cellular viability by 50%) values calculated from dose–response cytotoxicity curves (Figure 4).
Cytotoxicity was evaluated using a microculture tetrazolium test as previously described, and details can be found in the Supplementary Materials. The cell lines used in the presented study were acquired from the American Type Culture Collection (ATCC); the one used for cytotoxicity testing included non-cancerous VERO (kidney; ATCC CCL-81) cells and cancer-originating H1HeLa (cervical adenocarcinoma; ATCC CRL-1958) cells. VERO cells were cultured in Dulbecco’s Modified Eagle’s Medium (DMEM; Corning, Tewksbury, MA, USA), while Eagle’s Minimum Essential Medium (MEM; Corning) was used for H1HeLa. Antibiotics (penicillin–streptomycin solution, Corning) and fetal bovine serum (FBS, Corning) were added to cell media. Cells were incubated in a 5% CO2 atmosphere at 37 °C (CO2 incubator, Panasonic Healthcare Co., Tokyo, Japan). Briefly, the monolayers of VERO or H1HeLa cells in 96-well plates (Falcon, Corning) were treated with serial dilutions of selected compounds for 24 h. After this, the medium was removed, the plates were washed with phosphate buffered saline (PBS; Corning), a 10% solution of (3-(4,5-dimethylthiazol-2-yl)-2,5-diphenyltetrazolium bromide (MTT; Sigma-Aldrich, St. Louis, MO, USA) (5 mg/mL) in FBS-free cell media was added, and the incubation continued for the next 4 h. Subsequently, the precipitated formazan crystals were dissolved, and after overnight incubation at 37 °C, the Synergy H1 Multi-Mode Microplate Reader (BioTek Instruments, Inc., Winooski, VT, USA) with Gen5 software (ver. 3.09.07; BioTek Instruments, Inc.) was used for absorbance acquisition (540 and 620 nm). Data was exported to GraphPad Prism (ver. 10) to calculate the CC50 values (50% cytotoxic concentration) from dose–response curves.
Aromaticity Tuning in Biaryl Monophosphines and Their Derivatives […]
Cell line maintenance and in vitro experiments
The cytotoxicity of selected biaryl monophosphines was evaluated in vitro towards normal VERO (ATCC, CCL-81) cells and cancer-derived cell line H1HeLa (cervical adenocarcinoma; ATCC (American Type Culture Collection) CRL-1958) using 3-(4,5-dimethylthiazol-2-yl)-2,5-diphenylte-trazolium bromide (MTT) based protocol.
Media used for in vitro culturing included Dulbecco's Modified Eagle's Medium (DMEM, Corning, Tewksbury, MA, USA) used for VERO cells and Modified Eagle Medium (MEM, Corning) used for H1HeLa. Cell media used in the experiments were supplemented with antibiotics (Penicil-lin-Streptomycin Solution, Corning) and fetal bovine serum (FBS, Corning) – 10% (cell passaging) and 2% (cell maintenance and experiments). Phosphate-buffered saline (PBS) and trypsin were bought from Corning, whereas MTT (3-(4,5-dimethylthiazol-2-yl)-2,5-diphenyltetrazolium bromide) from Sigma (Sigma-Aldrich, St. Louis, MO, USA). SDS was purchased from PanReac Applichem (Darmstadt, Germany). Incubation was carried out in a 5% CO2 atmosphere at 37°C (CO2 incubator, Panasonic Healthcare Co., Tokyo, Japan).
Concentrations of cells for passaging were as follows: VERO – 1.5*10^5 cells/mL, H1HeLa – 2*10^5 cells/mL. Routine observations of cell cultures and experiments were carried out using an in-verted microscope (CKX41, Olympus Corporation, Tokyo, Japan) equipped with a ca mera (Moti-cam 3+, Motic, Hong Kong), and the results were recorded (Motic Images Plus 2.0, Motic).
Stock solutions of biaryl monophosphines were prepared by dissolving the samples in cell culture grade DMSO (PanReac Applichem).
Evaluation of cytotoxicity
Cytotoxicity was tested using an MTT-based protocol. The cells were passaged into 96-well plates (Falcon, TC-treated, Corning) and, after overnight incubation, treated with serial dilutions of […]

[1] = system: S. epidermidis ATCC 12228; experiment: Antibacterial screening, broth microdilution (MIC/MBC); assay type: cell-based, Staphylococcus epidermidis; conditions: for MIC / MBC: Staphylococcus epidermidis, ATCC12228; for MIC: S. epidermidis ATCC 12228, MHB, 24 h, 35 °C, read-out: MIC; for MBC: read-out: MBC
Protocol: (§1) The antimicrobial activities of a series of compounds 1–5 were tested through the utilization of seven reference species, encompassing both Gram-positive (Staphylococcus aureus ATCC 29213, Staphylococcus epidermidis ATCC 12228, Micrococcus luteus ATCC 10240) and Gram-negative (Escherichia coli ATCC 25922, Klebsiella pneumoniae ATCC 13883, Proteus mirabilis ATCC 12453, Acinetobacter baumannii ATCC 19606) bacteria as model microorganisms. For this purpose, microbial suspensions were prepared in sterile saline (0.85% NaCl) with an optical density of 0.5 McFarland standard, yielding a concentration of 150 × 10^6 CFU/mL (CFU, colony-forming units). All of the stock solutions of the tested compounds were dissolved in DMSO. Amoxicillin (Glentham Life Sciences Ltd., Corsham, UK) was used as a positive control.
(§2) The MIC values of the tested compounds were determined by serial twofold dilutions of 1–5 in Mueller Hinton Broth (MHB, Biomaxima, Lublin, Poland). The range of final 1–5 concentrations used was from 0.49 up to 1000 μg/mL, and for amoxicillin from 0.12 up to 250 μg/mL in the 96-well microtiter plates (Medlab, Raszyn, Poland), starting with 98 μL MHB and 2 μL bacterial inoculum added to each well. Positive controls consisted of 100 μL MHB in each well with the tested compounds at the same concentration range. The negative controls consisted of 100 μL of MHB only. Each set of tests and controls was established with three replicates. The microtiter plates were then subjected to an incubation period of 24 h at a temperature of 35 ± 2 °C. After incubation, the optical density of the microbial growth was measured at a wavelength of 600 nm using a microplate reader, the Biotek Elx800 (BioTek Instruments, Inc., Winooski, VT, USA). The MIC value was defined as the lowest concentration of the tested compound at which there was no visible growth of the tested microorganisms. The determination of the MIC values was achieved by employing the broth microdilution method, in accordance with the recommendations of the European Committee on Antimicrobial Susceptibility Testing (EUCAST). […] Then, the MHA plates were incubated overnight at 35 ± 2 °C. […] The MIC and MBC values were reported in μg/mL, according to the EUCAST reference.

P. mirabilis ATCC 12453 = experiment: as above; assay type: cell-based, Proteus mirabilis; conditions: Proteus mirabilis, ATCC12453; P. mirabilis ATCC 12453, MHB, 24 h, 35 °C; read-out: MIC
Protocol: as §1, §2

E. coli ATCC 25922 = experiment: as above; assay type: cell-based, Escherichia coli; conditions: Escherichia coli, ATCC25922; for MIC: E. coli ATCC 25922, MHB, 24 h, 35 °C, read-out: MIC
Protocol: as §1, §2

Compound: COc1cc(OC)c(-c2c(P(=O)(C3CCCCC3)C3CCCCC3)c(OC)c3ccccc3c2OC)c(OC)c1 [Compound 1, Dicyclohexyl[1,4-dimethoxy-3-(2,4,6-trimethoxyphenyl)naphthalen-2-yl]phosphane oxide]
- influence on morphology of the cellular monolayer (H1HeLa cells; 12.5 µg/mL): monolayer of H1Hela was destroyed
- type of activity (bactericidal or bacteriostatic) ([1]; S. epidermidis ATCC 12228): bactericidal
- MIC [1]: 15.6 to 31.2 µg/mL (≈ 27.6 to 55.1 µM)
- MBC ([1]; S. epidermidis ATCC 12228): 250 µg/mL (≈ 441 µM)
- MIC (P. mirabilis ATCC 12453): > 1000 µg/mL
- MIC (E. coli ATCC 25922): 500 to 1000 µg/mL (≈ 882 to 1760 µM)

Compound: COc1ccccc1-c1c(P(=O)(C2CCCCC2)C2CCCCC2)c(OC)c2ccccc2c1OC [Compound 2, Dicyclohexyl[1,4-dimethoxy-3-(2-methoxyphenyl)naphthalen-2-yl]phosphane oxide]
- influence on morphology of the cellular monolayer (H1HeLa cells; 12.5 µg/mL): monolayer of H1Hela was destroyed
- MIC [1]: 3.91 to 7.89 µg/mL (≈ 7.72 to 15.6 µM)
- MBC ([1]; S. epidermidis ATCC 12228): > 1000 µg/mL
- MIC (P. mirabilis ATCC 12453): > 1000 µg/mL
- MIC (E. coli ATCC 25922): > 1000 µg/mL

Compound: COc1cc(OC)c(-c2c(P(=O)(C3CCCCC3)C3CCCCC3)c(O)c3ccccc3c2OC)c(OC)c1 [Compound 3, 2-(Dicyclohexylphosphoryl)-4-methoxy-3-(2,4,6-trimethoxyphenyl)naphthalen-1-ol]
- influence on morphology of the cellular monolayer (H1HeLa cells; 1.6 µg/mL): the cellular monolayer resembled the control cells
- influence on morphology of the cellular monolayer (H1HeLa cells; 3.1 µg/mL): only a fraction of shrunken cells visible
- influence on morphology of the cellular monolayer (H1HeLa cells; 6.3 µg/mL): most of the cells showed cytotoxic damage
- influence on morphology of the cellular monolayer (H1HeLa cells; 12.5 µg/mL): destroyed the cellular monolayer
- MIC [1]: 31.2 µg/mL (≈ 56.5 µM)
- MBC ([1]; S. epidermidis ATCC 12228): > 1000 µg/mL
- MIC (P. mirabilis ATCC 12453): > 1000 µg/mL
- MBC (E. coli ATCC 25922; E. coli ATCC 25922): > 1000 µg/mL
- MIC (E. coli ATCC 25922): 250 to 500 µg/mL (≈ 452 to 905 µM)
